# Tests used:
# Assay in all cases: relative viability (nuclei count vs DMSO), 5 days (fraction); higher = more cells survive
# [1] = system: ABC-1
# Method in brief: (§1)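 Cells from lung cancer lines were seeded into 1536-well plates and, one day later, dosed by pin tool. Treatments were either a single drug or a fixed dose of an anchor drug with five library-drug doses (not always all listed) in √10 steps. After 5 days, nuclei were stained in a one-step fixation (final 0.05% Triton X-100, 1% formaldehyde, 1 ug/ml Hoechst) and counted on 4× images, and relative viability is the treated-to-vehicle nuclei ratio, as the median of duplicate plates.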
# [2] = system: CAL-12T
# Method in brief: as §1
# [3] = system: COR-L 105
# Method in brief: as §1
# [4] = system: EMC-BAC-2
# Method in brief: as §1
# [5] = system: EPLC-272H
# Method in brief: as §1
# [6] = system: HCC-15
# Method in brief: as §1
# [7] = system: HCC-78
# Method in brief: as §1
# [8] = system: HOP-62
# Method in brief: as §1
# [9] = system: LXF-289
# Method in brief: as §1
# [10] = system: NCI-H1666
# Method in brief: as §1
# [11] = system: NCI-H1755
# Method in brief: as §1
# [12] = system: NCI-H1915
# Method in brief: as §1
# [13] = system: NCI-H1975
# Method in brief: as §1
# [14] = system: NCI-H1993
# Method in brief: as §1
# [15] = system: NCI-H2023
# Method in brief: as §1
# [16] = system: NCI-H2085
# Method in brief: as §1
# [17] = system: NCI-H2126
# Method in brief: as §1
# [18] = system: NCI-H3122
# Method in brief: as §1
# [19] = system: NCI-H322M
# Method in brief: as §1
# [20] = system: NCI-H358
# Method in brief: as §1
# [21] = system: NCI-H441
# Method in brief: as §1
# [22] = system: UMC-11
# Method in brief: as §1
compound,measurement,setting,value
Oc1nc(-c2ccc(C(F)(F)F)cc2)nc2c1CSCC2 [XAV939] + C[C@]1(O)C[C@@H](c2nc(-c3ccc4ccc(-c5ccccc5)nc4c3)c3c(N)nccn32)C1 [Linsitinib] (partner 1 µM),relative viability,[1]; first compound 0.08 µM,0.915
same,relative viability,[1]; first compound 0.253 µM,0.733
same,relative viability,[1]; first compound 0.8 µM,0.809
same,relative viability,[1]; first compound 2.53 µM,0.315
same,relative viability,[2]; first compound 0.08 µM,0.87
same,relative viability,[2]; first compound 0.253 µM,0.809
same,relative viability,[2]; first compound 0.8 µM,0.667
same,relative viability,[2]; first compound 2.53 µM,0.667
same,relative viability,[3]; first compound 0.08 µM,1
same,relative viability,[3]; first compound 0.253 µM,0.98
same,relative viability,[3]; first compound 0.8 µM,0.868
same,relative viability,[3]; first compound 2.53 µM,0.561
same,relative viability,[4]; first compound 0.08 µM,0.868
same,relative viability,[4]; first compound 0.253 µM,0.705
same,relative viability,[4]; first compound 0.8 µM,0.711
same,relative viability,[4]; first compound 2.53 µM,0.511
same,relative viability,[5]; first compound 0.08 µM,1.3
same,relative viability,[5]; first compound 0.253 µM,1.08
same,relative viability,[5]; first compound 0.8 µM,1.18
same,relative viability,[5]; first compound 2.53 µM,1.09
same,relative viability,[6]; first compound 0.08 µM,0.923
same,relative viability,[6]; first compound 0.253 µM,0.851
same,relative viability,[6]; first compound 0.8 µM,0.859
same,relative viability,[6]; first compound 2.53 µM,0.848
same,relative viability,[7]; first compound 0.08 µM,0.59
same,relative viability,[7]; first compound 0.253 µM,0.448
same,relative viability,[7]; first compound 0.8 µM,0.616
same,relative viability,[7]; first compound 2.53 µM,0.443
same,relative viability,[8]; first compound 0.08 µM,1.01
same,relative viability,[8]; first compound 0.253 µM,0.882
same,relative viability,[8]; first compound 0.8 µM,0.954
same,relative viability,[8]; first compound 2.53 µM,0.939
same,relative viability,[9]; first compound 0.08 µM,0.991
same,relative viability,[9]; first compound 0.253 µM,0.954
same,relative viability,[9]; first compound 0.8 µM,0.975
same,relative viability,[9]; first compound 2.53 µM,0.952
same,relative viability,[10]; first compound 0.08 µM,0.816
same,relative viability,[10]; first compound 0.253 µM,0.598
same,relative viability,[10]; first compound 0.8 µM,0.712
same,relative viability,[10]; first compound 2.53 µM,0.568
same,relative viability,[11]; first compound 0.08 µM,0.975
same,relative viability,[11]; first compound 0.253 µM,0.865
same,relative viability,[11]; first compound 0.8 µM,0.969
same,relative viability,[11]; first compound 2.53 µM,0.921
same,relative viability,[12]; first compound 0.08 µM,1.13
same,relative viability,[12]; first compound 0.253 µM,1.11
same,relative viability,[12]; first compound 0.8 µM,1.04
same,relative viability,[12]; first compound 2.53 µM,1.11
same,relative viability,[13]; first compound 0.08 µM,0.854
same,relative viability,[13]; first compound 0.253 µM,0.711
same,relative viability,[13]; first compound 0.8 µM,0.97
same,relative viability,[13]; first compound 2.53 µM,0.673
same,relative viability,[14]; first compound 0.8 µM,0.754
same,relative viability,[14]; first compound 2.53 µM,0.719
same,relative viability,[15]; first compound 0.08 µM,0.699
same,relative viability,[15]; first compound 0.253 µM,0.626
same,relative viability,[15]; first compound 0.8 µM,0.625
same,relative viability,[15]; first compound 2.53 µM,0.447
same,relative viability,[16]; first compound 0.08 µM,0.811
same,relative viability,[16]; first compound 0.253 µM,0.771
same,relative viability,[16]; first compound 0.8 µM,0.91
same,relative viability,[16]; first compound 2.53 µM,0.888
same,relative viability,[17]; first compound 0.08 µM,0.727
same,relative viability,[17]; first compound 0.253 µM,0.61
same,relative viability,[17]; first compound 0.8 µM,0.672
same,relative viability,[17]; first compound 2.53 µM,0.642
same,relative viability,[18]; first compound 0.08 µM,1.02
same,relative viability,[18]; first compound 0.253 µM,0.986
same,relative viability,[18]; first compound 0.8 µM,0.951
same,relative viability,[18]; first compound 2.53 µM,0.557
same,relative viability,[19]; first compound 0.08 µM,0.966
same,relative viability,[19]; first compound 0.253 µM,0.872
same,relative viability,[19]; first compound 0.8 µM,0.909
same,relative viability,[19]; first compound 2.53 µM,0.618
same,relative viability,[20]; first compound 0.08 µM,0.832
same,relative viability,[20]; first compound 0.253 µM,0.551
same,relative viability,[20]; first compound 0.8 µM,0.655
same,relative viability,[20]; first compound 2.53 µM,0.558
same,relative viability,[21]; first compound 0.08 µM,0.675
same,relative viability,[21]; first compound 0.253 µM,0.413
same,relative viability,[21]; first compound 0.8 µM,0.507
same,relative viability,[21]; first compound 2.53 µM,0.507
same,relative viability,[22]; first compound 0.08 µM,1.25
same,relative viability,[22]; first compound 0.8 µM,0.952
same,relative viability,[22]; first compound 2.53 µM,0.854

# Reference: the supplement of paper PMC10307832
